Data set [1] concerns D-AMPH-induced hyperactivity. In words: Inhibition of D-amphetamine-induced hyperactivity. It counts as in vivo. As to conditions: rats, p.o.; D-AMPH 1 mg/kg i.p.; distance traveled over 2 h. The method, then: Male Sprague–Dawley rats (200–250 g, N=4/treatment group) were habituated to Lucite locomotor activity chambers comprising an AccuScan activity monitoring system (AccuScan Instruments, Inc., Columbus, OH) were maintained in a quiet observation room kept under low light conditions. […] The rats were briefly removed from the activity chambers 60 min later to receive an injection of D-amphetamine hydrochloride (D-AMPH; 1 mg/kg in 1 ml/kg, i.p.). The animals were returned to the activity chambers, and locomotor activity was then recorded for 2 h using system software. Activity was quantitated as distance traveled (cm) over 2 h for each group. Inhibitory activity was calculated as the percent of total activity observed at each dose level of each drug versus animals receiving D-AMPH alone. An ID50 for inhibition of D-AMPH-induced hyperactivity was calculated for each compound.

Data set [2] concerns striatal dopamine metabolism. Put plainly: Striatal dopamine metabolism (HPLC-EC of DA, DOPAC, HVA). It counts as in vivo, mice. The note with it: for DOPAC/DA, chronic (21 day) dosing, mean / HVA/DA, chronic (21 day) dosing, mean: striatum 2 h after last dose; for DOPAC/DA, acute (2 h) dosing, mean / HVA/DA, acute (2 h) dosing, mean: striatum 2 h after dose. The method, then: Measurements of tissue dopamine levels were performed at CDC-NIOSH. […] Striatum was rapidly dissected from each mouse brain, weighed, and placed into Eppendorf tubes that were frozen in liquid nitrogen and stored at -80 °C. […] Tissues were homogenized in 100 μl of ice-cold 0.2 M perchloric acid containing 1 μM dihydroxybenzylamine (DHBA) as an internal standard and centrifuged at 10,000×g for 10 min at 4 °C. The supernatant was filtered through a 0.2 μm nitrocellulose membrane, and an aliquot (10 μl) was injected from a temperature-controlled (4 °C) automatic sample injector (Waters 717plus Autosampler) connected to a Waters 515 HPLC pump. Catecholamines were separated on a C18 reverse-phase column ([…]; Waters […] 25 cm×4.6 mm; 5 μm), electrochemically detected (Waters 464 Pulsed Electrochemical Detector; range 10 nA, potential +0.7 V), and analyzed using Millennium software. […] A flow rate of 1 ml/min was used. […] The recovery of each analyte was adjusted with respect to the internal standard and quantified from a standard curve. The levels of dopamine and its metabolites, DOPAC and HVA, were calculated from the AUC values for each (based on microgram per gram (μg/g) tissue wet weight) and expressed as a percent of the saline control.

Data set [3] has as its system serine 40 (S40)-phosphorylated tyrosine hydroxylase. Put plainly: Striatal tyrosine hydroxylase S40 phosphorylation state (CNSProfile immunoblotting). The note with it: mice, acute; ITI-007 3 mg/kg p.o., clozapine 5 i.p., aripiprazole 10 p.o., olanzapine 1 i.p., risperidone 3 p.o., haloperidol 1 i.p.; over 60 min; vs vehicle. The class given is in vivo. The method, then: The effect of the selected compounds on the phosphorylation state of tyrosine hydroxylase (TH) was measured and quantitated as an indicator of the potential of each compound to perturb presynaptic dopamine synthesis in striatum. […] This technique preserves in vivo levels of brain protein phosphorylation ([Zhu et al. 2010]). […] Small aliquots of the homogenate were retained for protein determination by the bicinchoninic acid (BCA) protein assay method (Pierce Chemical Co., Rockford, IL). […] Immunoblotting was carried out using a phos-phorylation state-specific polyclonal antibody raised against […] (S40)-phosphorylated tyrosine hydroxylase (Chemicon, Temecula, CA) and a pan-TH monoclonal antibody for measuring the total protein levels (BD Biosciences, San Jose, CA). […] Antibody binding was detected and quantitated using a LiCor Odyssey infrared fluorescent detection system. Phosphorylation at each site detected by phospho-specific antibodies was quantified, normalized to total levels of the protein (non-phosphorylated), and expressed as percent±SEM of the level of phosphorylation in vehicle-treated control mice (N=6).
For orientation: In western blotting, separated proteins are transferred to a membrane and probed.

The subject of data set [4] is extracellular dopamine. In words: In vivo microdialysis of dopamine and DOPAC in striatum and prefrontal cortex. The note with it: rats. On the procedure:
On the day of the experiment (24–48 h after surgery), the microdialysis probes of each animal were connected via the use of flexible PEEK tubing to a microperfusion pump (Harvard Apparatus, PHD 2000 Holliston, MA). Artificial CSF, composed of 147 mM NaCl, 3 mM KCl, 1.2 mM CaCl2, and 1.2 mM MgCl2 was used to perfuse the probes (1.5 μl/min) beginning at 75 min prior to drug treatment. Baseline dialysate collection was begun for all rats 60 min prior to drug administration (t=−60 min) such that a total of […] were collected prior to drug treatment (t=0). […] A control group of rats (N=9) received only the 0.5 % methylcellulose vehicle solution, delivered orally (p.o.). All drug solutions were delivered in a volume of 1 ml/kg of body weight. Every 20 min for the following 3 h, dialysate was collected from both brain regions of each rat. Dialysates were collected into mini-vials containing 7.5 μl of 0.02 M formic acid using an automated fraction collector Univentor 820, Malta. Tubes containing dialysate samples were then frozen at −80 °C until analyzed by HPLC for levels of dopamine and the dopamine metabolite, DOPAC. […] Coronal sections were prepared of each rat brain to verify the position of the dialysis collection probes. Dopamine and DOPAC concentrations were determined in each sample using HPLC separation and electrochemical detection. An aliquot (20 μl) of each dialysate sample was injected onto the HPLC column by means of a refrigerated microsampler system, consisting of a syringe pump (Gilson, model 402), a multi-column injector (Gilson, model 233 XL), and a temperature regulator (Gilson, model 832). The chromatographic separation was performed on a reverse-phase 150 ×2.1 mm (3 μm) C18 Thermo BDS Hypersil column (Keystone Scientific). […] The mobile phase was run at a flow rate of 0.35 ml/min using an HPLC pump (Shimadzu, model LC-10AD vp). Dopamine and DOPAC were electrochemically detected using a potentiostat (Antec Leyden, model Intro) fitted with a glassy carbon electrode set a +500 mV versus Ag/AgCl (Antec, Leyden). Data were analyzed using Chromatography Data System software (Shimadzu, Class-VP, Japan) using an external standard method to quantify concentrations of dopamine and DOPAC. […] Drug effects were expressed as percentages of basal level (mean±SEM) within the same subject. Statistical analysis was performed using Sigmastat for Windows (SPSS Corporation). Drug effects were compared with baseline and vehicle control using a two-way ANOVA for repeated measurements followed by the Newman–Keuls post hoc test. […] For all tests, the level of statistical significance was set at p<0.05.

The test system of data set [5] is forelimb catalepsy. Put plainly: Forelimb catalepsy, bar grip test. The note with it: mice, 3 mg/kg p.o.; each time point (120-360 min); vs vehicle.
Procedure: Forelimb catalepsy was measured using the bar grip test. Mice were placed in a Lucite mouse cage outfitted with a 3-mm diameter wooden rod suspended 4 cm from the floor of the cage. During testing, the mouse was allowed to grip the bar firmly with hind legs placed firmly on the floor of the cage. The mouse was required to maintain this posture for at least 10 s for a valid test session. Catalepsy was then quantitated by recording the latency (in seconds) to step both front paws down to the floor of the cage up to a maximum time of 120 s. If the mouse stepped off the bar immediately (less than 10 s), another attempt was made up to a maximum of ten attempts. The longest duration of immobility was recorded if none of the ten attempts were beyond 10 s. Catalepsy was measured for each mouse at 2, 3, 4, and 6 h after drug administration. Mean forelimb catalepsy time (in seconds) was calculated across each group and time point. Data were analyzed using ANOVA with Newman–Keuls post hoc test.
Data set [6] deals with GluN2B phosphorylated at tyrosine (Y) 1472. In words: GluN2B Y1472 phosphorylation state in nucleus accumbens. As to conditions: mice, 1 mg/kg p.o., 120 min after administration. The class given is in vivo. The method, then:
Brains were rapidly removed from the skull. […] Brain tissue was prepared for SDS-PAGE as described above, and protein homogenates (15 μg) were separated on 3-7 % gradient gels, and proteins transferred to nitrocellulose membranes. Portions of each membrane were immunoblotted for GluN2B phosphorylated at […] (rabbit polyclonal) and total GluN2B (mouse monoclonal) (Thermo Fisher Scientific, Rockford, IL).

The mark [7] stands for this setting: 3 mg/kg p.o. once daily 21 days.
Where [8] appears, read: 30 mg/kg p.o. once daily 21 days.
The mark [9] stands for this setting: 1 mg/kg p.o. once daily 21 days.
Setting [10] is: 10 mg/kg p.o. once daily 21 days.

Marks after values point to notes of the source that are not given here.

Turning to `O=C1CCc2ccc(OCCCCN3CCN(c4cccc(Cl)c4Cl)CC3)cc2N1` [Aripiprazole], the “ID50, inhibition of D-AMPH-induced hyperactivity” value (“ID50, inhibition” for short) in data set [1] came out at 4.65 mg/kg. Also, in data set [2] (setting [7]), the “DOPAC/DA, chronic (21 day) dosing, mean” value is on record as 8.27 ^*, ^** and the “HVA/DA, chronic (21 day) dosing, mean” value was 12.14 ^*. Further, in data set [2] (3 mg/kg p.o. once), the “DOPAC/DA, acute (2 h) dosing, mean” value stood at 8.57 and the “HVA/DA, acute (2 h) dosing, mean” value amounted to 12.63. In addition, in data set [2] (setting [8]), the “DOPAC/DA, chronic (21 day) dosing, mean” value was 7.25 ^*, ^** and the “HVA/DA, chronic (21 day) dosing, mean” value was 12.32 ^*. For the same compound, in data set [2] (30 mg/kg p.o. once), the “DOPAC/DA, acute (2 h) dosing, mean” value is 11.89 and the “HVA/DA, acute (2 h) dosing, mean” value is given as 11.20. The “Effect on TH phosphorylation at S40 in striatum” value (“Effect on TH phosphorylation” for short) in data set [3] is reported as “did not significantly affect”. Moreover, in data set [4] (30 mg/kg p.o.), the “DA or DOPAC efflux in striatum or mPFC” value is reported as “did not significantly affect”.
For `CN1CCN(C2=Nc3cc(Cl)ccc3Nc3ccccc32)CC1` [Clozapine], the “Effect on TH phosphorylation” value in data set [3] was “did not significantly affect”.
As to `O=C(CCCN1CCC(O)(c2ccc(Cl)cc2)CC1)c1ccc(F)cc1` [Haloperidol], the “ID50, inhibition” value in data set [1] is 0.04 mg/kg. The “DOPAC/DA, chronic (21 day) dosing, mean” value in data set [2] (setting [9]) is on record as 18.26 ^*, ^**, ^***; in data set [2] (setting [7]), 17.00 ^*, ^**, ^***. Besides, the “HVA/DA, chronic (21 day) dosing, mean” value is given as 29.23 ^*, ^**, ^*** in data set [2] (setting [9]) and 24.15 ^*, ^**, ^*** in data set [2] (setting [7]). Further, the “DOPAC/DA, acute (2 h) dosing, mean” value in data set [2] (1 mg/kg p.o. once) is listed as 19.69 ^*, ^**, ^***; in data set [2] (3 mg/kg p.o. once), 22.68 ^*, ^**, ^***. In addition, the “HVA/DA, acute (2 h) dosing, mean” value in data set [2] (1 mg/kg p.o. once) is 31.04 ^*, ^**, ^***; in data set [2] (3 mg/kg p.o. once) it was 28.14 ^*, ^**, ^***. Besides, the “Forelimb catalepsy, bar grip test” value in data set [5] is given as “profound forelimb catalepsy”. The “GluN2B phosphorylation at Y1472 in nucleus accumbens” value in data set [6] was 177±28 % of control. Moreover, the “Effect on TH phosphorylation” value in data set [3] was “significantly increase”. Also, the “DA and DOPAC efflux in striatum” value in data set [4] (0.3 mg/kg s.c., p<0.001 vs vehicle) is given as “significant increase”. The “DA and DOPAC levels in mPFC” value in data set [4] (0.3 mg/kg s.c., p<0.01 (DA), p<0.001 (DOPAC) vs vehicle) is “elevated”.
Turning to `Cc1cc2c(s1)Nc1ccccc1N=C2N1CCN(C)CC1` [Olanzapine], the “Effect on TH phosphorylation” value in data set [3] was “significantly increase”.
On to `Cc1nc2n(c(=O)c1CCN1CCC(c3noc4cc(F)ccc34)CC1)CCCC2` [Risperidone], for which the “ID50, inhibition” value in data set [1] worked out at 0.33 mg/kg. Also, in data set [2] (setting [9]), the “DOPAC/DA, chronic (21 day) dosing, mean” value is 16.35 ^*, ^**, ^*** and the “HVA/DA, chronic (21 day) dosing, mean” value was 29.37 ^*, ^**, ^***. In addition, in data set [2] (1 mg/kg p.o. once), the “DOPAC/DA, acute (2 h) dosing, mean” value is 14.35 ^*, ^**, ^*** and the “HVA/DA, acute (2 h) dosing, mean” value was 30.71 ^*, ^**, ^***. Also, in data set [2] (setting [10]), the “DOPAC/DA, chronic (21 day) dosing, mean” value is 25.12 ^*, ^**, ^*** and the “HVA/DA, chronic (21 day) dosing, mean” value is given as 36.39 ^*, ^**, ^***. Moreover, in data set [2] (10 mg/kg p.o. once), the “DOPAC/DA, acute (2 h) dosing, mean” value is on record as 30.98 ^*, ^**, ^*** and the “HVA/DA, acute (2 h) dosing, mean” value is reported as 23.06 ^*, ^**, ^***. Besides, the “Effect on TH phosphorylation” value in data set [3] was “significantly increase”.

Values taken from paper PMC4302236, “Functional profile of a novel modulator of serotonin, dopamine, and glutamate neurotransmission” (Psychopharmacology, 2014).
